Literature values, collected in patent publication US7419680B2, “Calcium phosphate-based materials containing zinc, magnesium, fluoride and carbonate” (New York University, priority 2003, dated 2008).

Settings: earlier studies

## b-alanyl-L-histadanato zinc
  bone density / bone loss in vivo: effective in increasing bone density or in preventing bone loss in vivo
